“Also recorded” adds a separate entry of the source. Where no end group is shown, it is not given here. [ ]: non-standard residue; d: D form.
What was measured:
HUVECs [1] = test: Inhibition of the LL-37/hCAP-18-induced proliferative response of endothelial cells; type: cell-based, human; details: for effect of the inhibitor on LL-37/hCAP-18-induced endothelial proliferation: HUVECs preincubated with the inhibitor (pertussis toxin 10 ng/ml); for effect of the inhibitor on baseline cell proliferation: HUVECs, without LL-37/hCAP-18
Method: (§1) Endothelial cells from human umbilical veins (HUVEC) were isolated as described before^8. 10^4 cells were seeded on six well plastic dishes in serum free medium. Different concentrations of LL-37 were added to the culture medium. VEGF (5 ng/ml, 165 amino acid variant, Sigma Chemicals, Munich, Germany) was used as positive control. After 72 h the cells were detached from the support and counted. Experiments were repeated ten times using synthetic LL-37/hCAP-18 (37 C-terminal amino acids) and the hexapeptide WKYMVm, wherein “m” denotes the D-form of the amino acid methionine, from two different sources (IPF Pharmaceuticals, Hannover, Germany and Institute for Biochemistry, Humboldt-University of Berlin, Germany). As control peptide we used the peptide L-14 […] to have any interactions with FPRL1 from the same source (Humboldt-University). Human serum (10%, donor with ABO blood group O) was applied under the same conditions to analyze any impact on induction of proliferation by LL-37. For inhibition experiments we applied inhibitors of G-protein coupled receptors (pertussis toxin, 10 ng/ml), PI-3K (wortmannin), and PKC (GF 109203X). For Matrigel assays HUVECs were seeded on Matrigel support (Beckton Dickinson, Franklin Lakes, N.J.) and cultivated in serum free medium in the absence or presence of 0.5 μg/ml LL-37. After 18 h, the cultures were inspected for the formation of rings and cords. Experiments were repeated three times.
As a next step we analyzed which mechanisms might be involved in the angiogenic activity of LL-37/hCAP-18. We applied inhibitors of G-protein coupled receptors (pertussis toxin), PI-3K (wortmannin), and PKC (GF 109203X) and monitored cell proliferation as outcome parameter.

ischemic hindlimb = test: Rabbit hind limb model of arteriogenesis and angiogenesis; type: in vivo; details: 200 μg intramuscular 7 days after femoral artery excision, vs PBS control, day 35
Method: To analyze angiogenic effects of LL-37 in vivo we used a rabbit model of angiogenesis. German Giant Rabbits (6.5±0.4 kg, n=8) were subjected to ligation of the external iliac artery (proximally), the popliteal and saphenous arteries (distally) and all femoral artery branches, followed by excision of the entire femoral artery. Seven days after surgery, synthetic LL-37 (200 μg in 1 ml PBS) or PBS alone as control were injected into the muscles of the medial thigh and the calf (5 injections sites, n=4/group). Seven (baseline) and thirty-five days after surgery, angiography was performed by automated injection of contrast agent into the abdominal aorta (4 ml at 2 ml/sec; cine-angiography 25 frames/sec; Siemens, Munich, Germany). Collateral growth was defined as the increase in angiographic collateral score between baseline and 35 days after initial surgery (assessed by counting the contrast-opacified collateral vessels in the medial thigh using a grid overlay)^12. Blood flow was assessed by cine-frame-count of the passage time of contrast agent between the common iliac artery and the anterior tibial artery (proximal and distal landmarks), adapting the TIMI frame-count method to peripheral blood flow^13. Blood flow measurements correlate well with results obtained with doppler flow-wire in the internal iliac artery (Jomed, Haan, Germany). Tissue specimens were sampled from the right gastrocnemius and fibularis muscles for histology (alkaline phosphatase staining using an indoxyl-tetrazolium method), capillary density was assessed as the ratio of capillaries to muscle fibers (4 fields, 200× magnitude).
To assess the effect of LL-37/hCAP-18 on both angiogenesis and the induction of collateral circulation under pathological conditions, we applied the substance in a rabbit hind limb model. In this model angiogenesis and collateral vessel growth (arteriogenesis) are induced by excision of the femoral artery. Seven days after surgical excision of the femoral artery, baseline measurements were performed and LL-37/hCAP-18 or buffer as control were injected into the ischemic hindlimb.

HUVECs [2] = test: In vitro proliferation assay with HUVECs; type: cell-based, human
Method: as §1
We measured the ability of LL-37/hCAP-18 to accelerate proliferation of HUVECs in a proliferation assay. […] HUVECs were seeded on six well plastic dishes and cultivated in serum free medium. Different concentrations of LL-37/hCAP-18 and control peptides were added to the culture medium. Figures on the left hand side indicate the numbers of cells per μl of volume after 72 h. VEGF was used as positive control. In vitro proliferation was not inhibited by human serum. A significance level of P<0.05 is labeled with **.b. […] HUVECs were seeded on Matrigel support and cultivated in serum free medium in the absence (c) or presence (d) of 0.5 μg/ml LL-37/hCAP-18. After 18 h, the cultures were inspected for the formation of rings and cords. Representative figures are shown.

HUVECs [3] = test: In vitro Matrigel assay (formation of rings and cords); type: cell-based, human; details: HUVECs on Matrigel, serum free medium, 0.5 μg/ml, 18 h
Method: Endothelial cells from human umbilical veins (HUVEC) were isolated as described before^8. 10^4 cells were seeded on six well plastic dishes in serum free medium. Different concentrations of LL-37 were added to the culture medium. VEGF (5 ng/ml, 165 amino acid variant, Sigma Chemicals, Munich, Germany) was used as positive control. After 72 h the cells were detached from the support and counted. Experiments were repeated ten times using synthetic LL-37/hCAP-18 (37 C-terminal amino acids) and the hexapeptide WKYMVm, wherein “m” denotes the D-form of the amino acid methionine, from two different sources (IPF Pharmaceuticals, Hannover, Germany and Institute for Biochemistry, Humboldt-University of Berlin, Germany). As control peptide we used the peptide L-14 […] to have any interactions with FPRL1 from the same source (Humboldt-University). Human serum (10%, donor with ABO blood group O) was applied under the same conditions to analyze any impact on induction of proliferation by LL-37. For inhibition experiments we applied inhibitors of G-protein coupled receptors (pertussis toxin, 10 ng/ml), PI-3K (wortmannin), and PKC (GF 109203X). […]
We measured the ability of LL-37/hCAP-18 to accelerate proliferation of HUVECs in a proliferation assay. […]

[4] = serum free medium, cell count after 72 h

Compound	effect of the inhibitor on LL-37/hCAP-18-induced endothelial proliferation (HUVECs [1])	effect of the inhibitor on baseline cell proliferation (HUVECs [1])	endothelial proliferation (HUVECs [2]; [4])	also measured
CN(C)CCCn1cc(C2=C(c3c[nH]c4ccccc34)C(=O)NC2=O)c2ccccc21 [GF 109203X]	inhibition of the proliferative response; also recorded: inhibited activities of LL-37/hCAP-18 on endothelial proliferation	no effect on the baseline measurements	–	–
pertussis toxin	inhibition of the proliferative response; also recorded: inhibited activities of LL-37/hCAP-18 on endothelial proliferation	no effect on the baseline measurements	–	–
LLGDFFRKSKEKIGKEFKRIVQRIKDFLRNLVPRTES [LL-37/hCAP-18, human cathelicidin antimicrobial peptide, the 37 C-terminal amino acid residues; synthetic peptide used in the tests]	–	–	dose-dependent increase of endothelial proliferation	blood flow (cine-frame-count of contrast agent passage time) (ischemic hindlimb): significantly increased; also recorded: significantly augmented; capillary density (capillaries to muscle fibers, calf muscles) (ischemic hindlimb): higher capillary density; collateral growth (increase in angiographic collateral score, medial thigh) (ischemic hindlimb): significantly increased collateral growth; also recorded: significant increase; proliferative activity in the presence of human serum (HUVECs [2]; 10% human serum, 72 h): not inhibited; also recorded: not blocked; minimal concentration necessary to induce significant increase of proliferation (HUVECs [2]; [4]): 50 ng/mL; formation of rings and cords of cells (HUVECs [3]): significantly induces the formation of visible rings and cords of cells
WKYMVm (WKYMV[dM]) [synthetic hexapeptide, "m" denotes the D-form of methionine; specific agonist for FPRL1, reference compound]	–	–	stimulated proliferation of endothelial cells	–

From patent US20060275303A1, “Modulating angiogenesis using LL-37/HCAP-18” (priority 2003, published 2006)
